Literature values as cited in patent US8048872B2, “Treatment of hyperproliferative diseases with vinca alkaloid N-oxide and analogs” (Stat of Oregon Acting by and Through The Oregon State Board …, priority 2006, dated 2011).
Like-named read-outs stand apart in the source and are kept apart here.

Settings: cited from earlier work
[1] = melanoma, 200 mg/m^2/d PO days 1-5, every 28 days, Grade III-IV
[2] = melanoma, 200 mg/m^2/d PO days 1-5, every 28 days

Q: For `O=c1[nH]cc(F)c(=O)[nH]1` [5-Fluorouracil], which Diarrhea (human, in vivo, iv) is on record?
A: Its Diarrhea is “Diarrhea* 22%”.

Q: And the “Hand-Foot Syndrome” value (human, in vivo, iv)?
A: The value was “Syndrome* 14%”.

Q: And the “Leukopenia/Neutropenia Toxicity” value (human, in vivo, iv)?
A: The value was “Grade III-IV 0%”.

Q: And the Stomatitis (human, in vivo, iv)?
A: Its Stomatitis is “Stomatitis* 31%”.

Q: What does the source list for `CC1=C(/C=C/C(C)=C/C=C/C(C)=C/C(=O)O)C(C)(C)CCC1` [ATRA]?
A: Hepatotoxicity (Maintenance Therapy (n = 94)): Hepatotoxicity 5.3%; Infection (Maintenance Therapy (n = 94)): Infection 7.4%; Life-Threatening Toxicity (Maintenance Therapy (n = 94)): Toxicity 36%; Neurotoxicity (Maintenance Therapy (n = 94)): Neurotoxicity 11.7%

Q: What does the source list for `CN(C)c1nc(N(C)C)nc(N(C)C)n1` [Altretamine]?
A: Anemia Grade III-IV (human, in vivo, iv): Anemia Grade III-IV 2%; Fatigue (human, in vivo, iv): Fatigue 9%; Nausea (human, in vivo, iv): Nausea 14%; Neurologic (human, in vivo, iv): Neurologic 2%; Vomiting (human, in vivo, iv): Vomiting 12%

Q: With `O=NN(CCCl)C(=O)NCCCl` [BCNU (carmustine)] as the compound, how does the Nausea/Vomiting (Grade III-IV) read?
A: Its Nausea/Vomiting is “Nausea/Vomiting 5%”.

Q: What about the Thrombocytopenia (Grade III-IV) of the same compound?
A: Its Thrombocytopenia is “Thrombocytopenia 21%”.

Q: And the Leukopenia (Grade III)?
A: Its Leukopenia is “Grade III 4%”.

Q: What about the Leukopenia (Grade IV) of the same compound?
A: The Leukopenia was “Grade IV 1%”.

Q: Which Dehydration (human, in vivo, iv) does the source give for `CCCCCOC(=O)Nc1nc(=O)n([C@@H]2O[C@H](C)[C@@H](O)[C@H]2O)cc1F` [Capecitabine] here?
A: Its Dehydration is “Dehydration 4%”.

Q: What about the Fatigue (human, in vivo, iv) of the same compound?
A: Its Fatigue is “Fatigue 7%”.

Q: What about the Hyperbilirubinemia (human, in vivo, iv) of the same compound?
A: The Hyperbilirubinemia was 17.3%.

Q: And the Hyperglycemia (human, in vivo, iv)?
A: The Hyperglycemia was “Hyperglycemia 8.7%”.

Q: What about the “Leukopenia/Neutropenia Toxicity” value (human, in vivo, iv) of the same compound?
A: The value was “Grade III-IV 3%”.

Q: And the Nausea (human, in vivo, iv)?
A: Its Nausea is “Nausea 4%”.

Q: And the Stomatitis (human, in vivo, iv)?
A: Its Stomatitis is “Stomatitis 3%”.

Q: What about the Vomiting (human, in vivo, iv) of the same compound?
A: Its Vomiting is “Vomiting 4%”.

Q: What about the Leukopenia (human, in vivo) of the same compound?
A: Its Leukopenia is “Grade III 0.3%”.

Q: What does the source list for `N.N.[Cl][Pt][Cl]` [Cisplatin]?
A: Anemia Grade III-IV (Grade III-IV): 11%; Cardiovascular (Grade III-IV): Cardiovascular 2%; Leukopenia (Grade III-IV): Grade III-IV 7%; Neurologic (Grade III-IV): Neurologic 11%; Neutropenic Fever (Grade III-IV): Neutropenic Fever <1%; Renal (Grade III-IV): Renal 4%; Leukopenia (Grade III): Grade III 18%; Leukopenia (Grade IV): Grade IV 3%; Hearing Loss (clinical) (human, in vivo): 12%

Q: With `Nc1nc(Cl)nc2c1ncn2[C@H]1C[C@H](O)[C@@H](CO)O1` [Cladribine] as the compound, how does the “Anemia Grade III-IV” value (Grade III-IV) read?
A: The value was 22%.

Q: What about the “Documented Infection” value (Grade III-IV) of the same compound?
A: The value was “Infections 13%”.

Q: What about the “Leukopenia/Neutropenia Toxicity” value (Grade III-IV) of the same compound?
A: The value was “Grade III-IV 87%”.

Q: And the “Neutropenic Fever” value (Grade III-IV)?
A: The value was “Neutropenic Fever 42%”.

Q: And the Thrombocytopenia (Grade III-IV)?
A: The Thrombocytopenia was “Thrombocytopenia 20%”.

Q: For `Nc1ccn([C@@H]2O[C@H](CO)[C@@H](O)[C@@H]2O)c(=O)n1` [Cytarabine], which “CNS Toxicities” value (human, in vivo, iv) is on record?
A: The value was “CNS Toxicities 12%”.

Q: And the “CNS Toxicities” value (human, in vivo)?
A: The value was “(32% with age >60 yrs)”.

Q: Which “Anemia Grade III-IV” value (human, in vivo, iv) does the source give for `CN(C)/N=N/c1[nH]cnc1C(N)=O` [Dacarbazine] here?
A: The value was “Anemia Grade III-IV 6%”.

Q: And the “Anemia Grade IV” value (human, in vivo, iv)?
A: Its value is “Anemia Grade IV 1%”.

Q: What about the “Asthenia (Grade III)” value (human, in vivo, iv) of the same compound?
A: The value was “Asthenia (Grade III) 1%”.

Q: And the “Constipation (Grade III)” value (human, in vivo, iv)?
A: Its value is “(Grade III) 3%”.

Q: And the Dyspnea (human, in vivo, iv)?
A: The Dyspnea was “Dyspnea 1%”.

Q: And the “Fatigue (Grade III)” value (human, in vivo, iv)?
A: The value was “Fatigue (Grade III) 2%”.

Q: What about the “Fever (Grade III)” value (human, in vivo, iv) of the same compound?
A: Its value is “Fever (Grade III) 2%”.

Q: And the “Headache (Grade III)” value (human, in vivo, iv)?
A: Its value is “Headache (Grade III) 1%”.

Q: And the “Leukopenia without neutropenia Grade III” value (human, in vivo, iv)?
A: The value was “Grade III 1%”.

Q: What about the “Nausea (Grade III)” value (human, in vivo, iv) of the same compound?
A: The value was “Nausea (Grade III) 4%”.

Q: What about the Nausea/Vomiting (human, in vivo, iv) of the same compound?
A: Its Nausea/Vomiting is “Nausea/Vomiting 5%”.

Q: And the “Pain (Grade III)” value (human, in vivo, iv)?
A: The value was “Pain (Grade III) 13%”.

Q: And the “Somnolence (Grade III)” value (human, in vivo, iv)?
A: Its value is “(Grade III) 1%”.

Q: What about the “Vomiting (Grade III)” value (human, in vivo, iv) of the same compound?
A: Its value is “Vomiting (Grade III) 4%”.

Q: For `CC(=O)O[C@@]12CO[C@@H]1C[C@H](O)[C@@]1(C)C(=O)[C@H](O)C3=C(C)[C@@H](OC(=O)[C@H](O)[C@@H](NC(=O)OC(C)(C)C)c4ccccc4)C[C@@](O)([C@@H](OC(=O)c4ccccc4)[C@H]21)C3(C)C` [Docetaxel], which Alopecia (Grade III-IV) is on record?
A: The Alopecia was “Alopecia 13%”.

Q: What about the Asthenia (Grade III-IV) of the same compound?
A: The Asthenia was “Asthenia 16%”.

Q: And the Diarrhea (Grade III-IV)?
A: Its Diarrhea is “Diarrhea 8%”.

Q: What about the Fatigue/Asthenia (Grade III-IV) of the same compound?
A: The Fatigue/Asthenia was “Fatigue/Asthenia 10%”.

Q: And the “Febrile Neutropenia” value (Grade III-IV)?
A: The value was “Febrile Neutropenia 33%”.

Q: And the “Hypersensitivity Reaction” value (Grade III-IV)?
A: Its value is “Reactions 3%”.

Q: And the “Leukopenia/Neutropenia Toxicity” value (Grade III-IV)?
A: The value was “Grade III-IV 93%”.

Q: What about the Nausea (Grade III-IV) of the same compound?
A: The Nausea was “Nausea 5%”.

Q: What about the Nausea/Emesis (Grade III-IV) of the same compound?
A: The Nausea/Emesis was “Nausea/Emesis 10%”.

Q: And the Neuropathy (Grade III-IV)?
A: Its Neuropathy is “Neuropathy 3%”.

Q: And the Neurosensory (Grade III-IV)?
A: The Neurosensory was “Neurosensory 5%”.

Q: And the “Neutropenic Fever” value (Grade III-IV)?
A: The value was “Neutropenic Fever 9%”.

Q: What about the “Severe Fluid Retention” value (Grade III-IV) of the same compound?
A: Its value is 8%.

Q: And the Stomatitis (Grade III-IV)?
A: Its Stomatitis is “Stomatitis 9%”.

Q: And the Thrombocytopenia (Grade III-IV)?
A: Its Thrombocytopenia is “Thrombocytopenia 4%”.

Q: What about the Vomiting (Grade III-IV) of the same compound?
A: The Vomiting was “Vomiting 3%”.

Q: And the Granulocytopenia (Grade III)?
A: The Granulocytopenia was “Grade III 6%”.

Q: What about the Leukopenia (Grade III) of the same compound?
A: The Leukopenia was “Grade III 8%”.

Q: What about the Thrombocytopenia (Grade III) of the same compound?
A: The Thrombocytopenia was “(Grade III) 6%”.

Q: And the Granulocytopenia (Grade IV)?
A: Its Granulocytopenia is “Grade IV 72%”.

Q: What about the “Neutropenic Infection” value (human, in vivo, iv) of the same compound?
A: Its value is “(Grade III-IV) 11%”.

Q: Which Cardiotoxicity (human, in vivo, iv) does the source give for `COc1cccc2c1C(=O)c1c(O)c3c(c(O)c1C2=O)C[C@@](O)(C(=O)CO)C[C@@H]3O[C@H]1C[C@H](N)[C@H](O)[C@H](C)O1` [Doxorubicin] here?
A: Its Cardiotoxicity is “Cardiotoxicity 1%”.

Q: And the Gastrointestinal (human, in vivo, iv)?
A: The Gastrointestinal was “Gastrointestinal 3%”.

Q: What about the Infection (human, in vivo, iv) of the same compound?
A: Its Infection is “Infection 3%”.

Q: What about the “Leukopenia/Neutropenia Toxicity” value (human, in vivo, iv) of the same compound?
A: Its value is “Grade III-IV 8%”.

Q: What about the “Leukopenia/Neutropenia Toxicity Grade III-IV” value (human, in vivo, iv) of the same compound?
A: The value was “Grade III-IV 51%”.

Q: And the “Leukopenia/Neutropenia Toxicity Grade IV” value (human, in vivo, iv)?
A: Its value is “Grade IV 21%”.

Q: What about the Mucositis (human, in vivo, iv) of the same compound?
A: The Mucositis was “Mucositis 6%”.

Q: And the Nausea/Vomiting (human, in vivo, iv)?
A: The Nausea/Vomiting was “Nausea/Vomiting 13%”.

Q: And the Thrombocytopenia (human, in vivo, iv)?
A: The Thrombocytopenia was “Thrombocytopenia 2%”.

Q: Which results are given for `Nc1nc(F)nc2c1ncn2[C@@H]1O[C@H](CO)[C@@H](O)[C@@H]1O` [Fludarabine]?
A: Diarrhea (Grade III-IV): Diarrhea 2%; Nausea (Grade III-IV): Nausea 3%; Neuropathy (Grade III-IV): Neuropathy 4%; Stomatitis (Grade III-IV): Stomatitis 2%; Thrombocytopenia (Grade III-IV): Thrombocytopenia 25%; Neutropenia (Grade IV (of cycles)): Neutropenia 56%; Febrile Infection During Cycles 1-3 (human, in vivo): Cycles 1-3 30%

Q: What does the source list for `CN(Cc1cnc2nc(N)nc(N)c2n1)c1ccc(C(=O)N[C@@H](CCC(=O)O)C(=O)O)cc1` [Methotrexate]?
A: Hepatotoxicity (Grade III) (human, in vivo): 24.4% (all ages); Hepatotoxicity (Grade IV) (human, in vivo): 2.4% (all ages)

Q: Which “Increased AST” value (human, in vivo, iv) does the source give for `CC(=O)O[C@H]1C(=O)[C@@]2(C)[C@H]([C@H](OC(=O)c3ccccc3)[C@]3(O)C[C@H](OC(=O)[C@H](O)[C@@H](NC(=O)c4ccccc4)c4ccccc4)C(C)=C1C3(C)C)[C@]1(OC(C)=O)CO[C@@H]1C[C@@H]2O` [Paclitaxel] here?
A: The value was “Increased AST 5%”.

Q: What about the “Leukopenia/Neutropenia Toxicity” value (human, in vivo, iv) of the same compound?
A: The value was “Grade III-IV 23%”.

Q: What does the source list for `Cn1nnc2c(C(N)=O)ncn2c1=O` [Temozolomide]?
A: Anemia Grade III-IV (Grade III-IV): Anemia Grade III-IV 1%; Asthenia (Grade III-IV): Asthenia 6%; Fatigue (Grade III-IV): Fatigue 5%; Fever (Grade III-IV): Fever 2%; Headache (Grade III-IV): Headache 6%; Nausea (Grade III-IV): Nausea 10%; Thrombocytopenia (Grade III-IV): Thrombocytopenia 6%; Vomiting (Grade III-IV): Vomiting 6%; Leukopenia (grade not given): Leukopenia 2%; Neutropenia (grade not given): Neutropenia 2%; Fever [1]: Fever 2%; Headache [1]: Headache 6%; Thrombocytopenia [1]: Thrombocytopenia 7%; Vomiting [1]: Vomiting 5%; Anemia Grade III-IV [2]: Anemia Grade III-IV 2%; Asthenia (Grade III) [2]: Asthenia (Grade III) 3%; Constipation (Grade III) [2]: (Grade III) 3%; Fatigue (Grade III) [2]: Fatigue (Grade III) 3%; Nausea (Grade III) [2]: Nausea (Grade III) 4%; Neutropenia Grade III [2]: Grade III 1%; Neutropenia Grade IV [2]: Grade IV 2%; Pain (Grade III) [2]: Pain (Grade III) 7%

Q: Which “Anemia Grade III-IV” value (human, in vivo) does the source give for `O=C1CCC(N2C(=O)c3ccccc3C2=O)C(=O)N1` (stereo not drawn) [Thalidomide] here?
A: The value was 3.6%.

Q: And the Thrombocytopenia (human, in vivo)?
A: Its Thrombocytopenia is “Thrombocytopenia 3.6%”.

Q: Which results are given for `CC[C@@]1(O)C(=O)OCc2c1cc1n(c2=O)Cc2cc3c(CN(C)C)c(O)ccc3nc2-1` [Topotecan]?
A: Anorexia (human, in vivo, iv): Anorexia 1%; Diarrhea (human, in vivo, iv): Diarrhea 1%; Fatigue (human, in vivo, iv): Fatigue 5%; Neutropenic Sepsis (human, in vivo, iv): Neutropenic Sepsis 5%; Sepsis (human, in vivo, iv): Sepsis 9%; Severe Bleed (human, in vivo, iv): Severe Bleed <1%; Stomatitis (human, in vivo, iv): Stomatitis 2%; Leukopenia/Neutropenia Toxicity (human, in vivo): Grade III 15%
